Paper PMC12470104, “The Achilles Heel of Protein Biochemistry: Insolubility of Recombinant Proteins—A Case Study About Producing a Rice Enzyme” (International Journal of Molecular Sciences, 2025)

Test system: T1, OsAPSE
T1 construct: GH27 42-387, ricin-B-like 498-563, GH-all-beta 563-649; catalytic D226, D282
Assay: discontinuous pNP release assay, A405; Hanes-Woolf and Eadie-Hofstee
Format: biochemical, Oryza sativa subsp. japonica
Details: 50 mM Tris-HCl pH 8, 25 °C; 50 µg/mL enzyme; protein refolded from inclusion bodies (authors suspect suboptimal folding); 1-20 mM substrate, Km extrapolated above tested range

**Q.** Which Km does the source give for O=[N+]([O-])c1ccc(O[C@H]2O[C@H](CO)[C@H](O)[C@H](O)[C@H]2O)cc1 [pNP-α-D-Galp] here?
**A.** The Km was 44 mM.
